{"source": "paper PMC10140010", "about": "(Investigational New Drugs, 2023)", "key": {"OAT1": {"tested_on": "OAT1", "experiment": "Uptake substrate investigation in HEK293 cells expressing transporter", "settings": "ATV 1 μM, no inhibitor, OAT1 pre-test"}, "OATP1B3": {"tested_on": "OATP1B3", "experiment": "Uptake substrate investigation in HEK293 cells expressing transporter"}, "OAT3": {"tested_on": "OAT3", "experiment": "Uptake substrate investigation in HEK293 cells expressing transporter", "settings": "ATV 1 μM, no inhibitor, OAT3 pre-test"}, "[1]": {"tested_on": "LU-01-0015 (HIP-ALK) patient derived lung-tumor xenografts", "experiment": "LU-01-0015 patient-derived xenograft model (tumor volume, body weight)", "assay_type": "in vivo, BALB/c nude mice", "settings": "LU-01-0015 and NCI-H3122 xenograft models, all P < 0.05", "description": "Female BALB/c nude mice (4–6 weeks old) were provided by Shanghai Sipple-Bikai Laboratory Animal Co., Ltd. and Beijing Vital River Laboratory Animal Technology Co., Ltd. The mice were housed in a specific pathogen-free environment under a 12 h light/dark cycle, and had free access to sterile animal feed and water.\nPDX and CDX models were used for in vivo studies. Patient-derived tumors tissues were divided into about 30 mm^3 and transplanted into the right dorsal subcutis. Treatment began when the tumor size reached to 200 mm^3. The mice were randomly assignied into the corresponding dosing groups (9 mice in each group). Drugs were deliverd via daily oral for 4 weeks. Tumor size was measured periodically using a digital caliper (Cal Pro, Sylvac, Switzerland), and tumor volume was calculated as 0.5 × length × width^2. For more detailed information, please refer to Supplementary materials. All procedures and protocols of xenograft models were approved by the Institutional Animal Care and Use Committee of WuXi AppTec.\nPatient-derived tumor tissue was segmented into small pieces of approximately 20–30 mm^3 and transplanted subcutaneously into the right back of mice. When the tumor volume reached 150-200 mm^3, the mice were randomly divided into corresponding groups (9 mice in each group, female). Administered by gavage once daily for 4 weeks."}, "ALK": {"tested_on": "ALK", "settings": "cited from earlier work"}, "BCRP": {"target": "T1, BCRP (Homo sapiens, UniProt Q9UNQ0)", "T1 sequence (Q9UNQ0 1-655)": "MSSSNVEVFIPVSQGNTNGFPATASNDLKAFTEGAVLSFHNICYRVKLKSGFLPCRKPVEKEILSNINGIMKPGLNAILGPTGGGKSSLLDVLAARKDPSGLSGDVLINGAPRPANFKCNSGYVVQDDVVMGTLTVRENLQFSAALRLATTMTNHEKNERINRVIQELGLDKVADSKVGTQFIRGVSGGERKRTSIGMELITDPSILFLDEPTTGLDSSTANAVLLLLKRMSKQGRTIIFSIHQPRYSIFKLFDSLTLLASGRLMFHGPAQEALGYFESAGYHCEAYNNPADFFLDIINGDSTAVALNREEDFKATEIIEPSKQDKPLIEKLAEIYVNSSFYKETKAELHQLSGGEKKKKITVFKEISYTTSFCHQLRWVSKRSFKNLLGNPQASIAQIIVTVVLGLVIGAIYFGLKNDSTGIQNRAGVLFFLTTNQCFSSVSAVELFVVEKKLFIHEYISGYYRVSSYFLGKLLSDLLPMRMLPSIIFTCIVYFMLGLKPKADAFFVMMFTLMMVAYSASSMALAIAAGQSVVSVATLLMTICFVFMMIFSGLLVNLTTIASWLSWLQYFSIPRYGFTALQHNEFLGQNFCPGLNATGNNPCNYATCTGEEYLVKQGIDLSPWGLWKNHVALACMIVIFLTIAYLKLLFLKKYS", "experiment": "ABC efflux transporter inhibitor test on Caco-2 cells (E3S efflux)"}, "MATE1 [2]": {"target": "T2, MATE1 (Homo sapiens, UniProt Q96FL8)", "T2 sequence (Q96FL8 1-570)": "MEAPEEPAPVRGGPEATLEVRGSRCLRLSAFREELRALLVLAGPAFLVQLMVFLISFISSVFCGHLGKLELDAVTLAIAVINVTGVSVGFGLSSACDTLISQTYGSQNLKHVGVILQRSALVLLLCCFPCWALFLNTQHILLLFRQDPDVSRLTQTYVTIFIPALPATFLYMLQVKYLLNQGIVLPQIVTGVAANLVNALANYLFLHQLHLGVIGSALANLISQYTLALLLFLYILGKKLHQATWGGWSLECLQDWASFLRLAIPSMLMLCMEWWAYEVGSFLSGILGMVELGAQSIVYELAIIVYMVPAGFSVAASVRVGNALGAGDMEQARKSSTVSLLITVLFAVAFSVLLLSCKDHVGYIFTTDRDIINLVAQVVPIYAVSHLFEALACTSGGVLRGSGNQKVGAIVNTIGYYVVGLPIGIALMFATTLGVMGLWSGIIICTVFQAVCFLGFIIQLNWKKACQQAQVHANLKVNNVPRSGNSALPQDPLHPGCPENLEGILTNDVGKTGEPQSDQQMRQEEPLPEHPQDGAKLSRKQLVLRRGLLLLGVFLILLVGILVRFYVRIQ", "experiment": "Substrate investigation in HEK293 cells expressing transporter", "assay_type": "in vitro ADME", "parameters": "No ESH8G27; host or cells: HEK293", "settings": "MPP 10 μM, no inhibitor, pre-test"}, "OCT2": {"target": "T3, OCT2 (Homo sapiens, UniProt O15244)", "T3 construct": "No ESH9G27; host or cells: HEK293", "T3 sequence (O15244 1-555)": "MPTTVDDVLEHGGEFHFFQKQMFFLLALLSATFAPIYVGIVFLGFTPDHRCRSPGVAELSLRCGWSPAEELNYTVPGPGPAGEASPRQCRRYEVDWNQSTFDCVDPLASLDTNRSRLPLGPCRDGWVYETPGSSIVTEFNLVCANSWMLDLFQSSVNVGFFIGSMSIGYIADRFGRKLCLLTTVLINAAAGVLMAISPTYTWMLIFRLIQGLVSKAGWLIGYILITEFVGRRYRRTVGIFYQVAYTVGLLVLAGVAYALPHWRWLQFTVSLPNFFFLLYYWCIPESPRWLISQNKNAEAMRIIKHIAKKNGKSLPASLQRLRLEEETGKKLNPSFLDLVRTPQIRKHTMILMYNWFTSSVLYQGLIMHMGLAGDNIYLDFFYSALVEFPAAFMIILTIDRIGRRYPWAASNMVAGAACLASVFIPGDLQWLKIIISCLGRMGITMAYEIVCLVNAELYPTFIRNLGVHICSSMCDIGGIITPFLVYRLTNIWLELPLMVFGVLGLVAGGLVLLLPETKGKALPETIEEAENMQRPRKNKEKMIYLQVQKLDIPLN", "experiment": "Uptake substrate investigation in HEK293 cells expressing transporter", "assay_type": "in vitro ADME", "settings": "20 μM, Suppl. Table 11"}, "MATE1 [3]": {"target": "T2, MATE1", "experiment": "Uptake inhibitor investigation in HEK293 cells expressing transporter", "settings": "HEK293 cells expressing MATE1, probe MPP, 10 μM"}, "[4]": {"settings": "MOCK293, ATV 1 μM, no inhibitor, OATP1B3 pre-test"}, "[5]": {"settings": "OATP1B1-293 (so in the source), ATV 1 μM, no inhibitor, OATP1B3 pre-test"}}, "note": "“And” between values parts separate entries of the source, which are not always exact repeats. Equal values may be shown once.", "data": [{"smiles": "CC(C)c1c(C(=O)Nc2ccccc2)c(-c2ccccc2)c(-c2ccc(F)cc2)n1CC[C@@H](O)C[C@@H](O)CC(=O)O", "note": "[ATV]", "values": [{"measurement": "Uptake transport activity, Mean", "setting": "OAT1; MOCK293", "result": 3.393, "unit": "pmol/mg protein/min"}, {"measurement": "Uptake transport activity, Repeat 1 / Repeat 2", "setting": "OAT1; MOCK293", "result": "3.281 pmol/mg protein/min and 3.505 pmol/mg protein/min"}, {"measurement": "Uptake transport activity, Mean", "setting": "OAT1; OATP1B1-293 (so in the source)", "result": 31.40, "unit": "pmol/mg protein/min"}, {"measurement": "Uptake transport activity, Repeat 1 / Repeat 2", "setting": "OAT1; OATP1B1-293 (so in the source)", "result": "36.42 pmol/mg protein/min and 26.39 pmol/mg protein/min"}, {"measurement": "Uptake transport activity, Net value", "setting": "OAT1; transporter cells vs MOCK293", "result": 28.01, "unit": "pmol/mg protein/min"}, {"measurement": "Uptake transport activity, Mean", "setting": "OATP1B3; MOCK293 (OATP1B3 set), 1 μM, Suppl. Table 11", "result": 2.359, "unit": "pmol/mg protein/min"}, {"measurement": "Uptake transport activity, Mean", "setting": "OATP1B3; [4]", "result": 3.030, "unit": "pmol/mg protein/min"}, {"measurement": "Uptake transport activity, Repeat 1 / Repeat 2", "setting": "OATP1B3; [4]", "result": "2.810 pmol/mg protein/min and 3.250 pmol/mg protein/min"}, {"measurement": "Uptake transport activity, Mean", "setting": "OATP1B3; [5]", "result": 13.60, "unit": "pmol/mg protein/min"}, {"measurement": "Uptake transport activity, Repeat 1 / Repeat 2", "setting": "OATP1B3; [5]", "result": "14.30 pmol/mg protein/min and 12.90 pmol/mg protein/min"}, {"measurement": "Uptake transport activity, Net value", "setting": "OATP1B3; transporter cells vs MOCK293, ATV 1 μM, no inhibitor, OATP1B3 pre-test", "result": 10.6, "unit": "pmol/mg protein/min"}, {"measurement": "Uptake transport activity, Mean", "setting": "OAT3; MOCK293", "result": 75.16, "unit": "pmol/mg protein/min"}, {"measurement": "Uptake transport activity, Repeat 1 / Repeat 2", "setting": "OAT3; MOCK293", "result": "59.57 pmol/mg protein/min and 90.74 pmol/mg protein/min"}, {"measurement": "Uptake transport activity, Mean", "setting": "OAT3; OATP1B1-293 (so in the source)", "result": 727.9, "unit": "pmol/mg protein/min"}, {"measurement": "Uptake transport activity, Repeat 1 / Repeat 2", "setting": "OAT3; OATP1B1-293 (so in the source)", "result": "731.6 pmol/mg protein/min and 724.2 pmol/mg protein/min"}, {"measurement": "Uptake transport activity, Net value", "setting": "OAT3; transporter cells vs MOCK293", "result": 652.7, "unit": "pmol/mg protein/min"}]}, {"smiles": "Cc1cc(Nc2ncc(Cl)c(Nc3ccccc3S(=O)(=O)C(C)C)n2)c(OC(C)C)cc1C1CCNCC1", "note": "[Ceritinib]", "values": [{"measurement": "tumor growth inhibition", "setting": "[1]", "result": "able to inhibit tumor growth"}, {"measurement": "GI50", "setting": "ALK; in vitro enzymatic study against ALK, read-out: half-maximal growth inhibition concentration (GI50)", "result": 0.15, "unit": "nM"}, {"measurement": "fold more potent against ALK than crizotinib", "setting": "ALK; in vitro enzymatic study", "result": "~ 20 fold"}]}, {"smiles": "C[C@]12CC[C@@H]3c4ccc(OS(=O)(=O)O)cc4CC[C@H]3[C@@H]1CCC2=O", "note": "[E3S, reference compound]", "values": [{"measurement": "Exhaust Ratio Mean", "setting": "BCRP; E3S 10 µM alone, Caco-2", "result": 20.54}]}, {"smiles": "COc1cc2c(cc1OC)CN(CCc1ccc(NC(=O)c3cccc4c(=O)c5cccc(OC)c5[nH]c34)cc1)CC2", "note": "[Elacridar, reference compound]", "values": [{"measurement": "inhibition at 10 µM", "setting": "BCRP; human, Caco-2 cells, probe E3S (10 µM), Exhaust inhibition rate (%), substrate E3S 10 µM, inhibitor 10 µM", "result": 91.6, "unit": "%"}, {"measurement": "Exhaust inhibition rate (%)", "setting": "BCRP; substrate E3S 10 µM, inhibitor 10 µM", "result": 91.7, "unit": "%"}]}, {"smiles": "C[n+]1ccc(-c2ccccc2)cc1", "note": "[MPP]", "values": [{"measurement": "Uptake transport activity, Mean", "setting": "MATE1 [2]; MATE1-293", "result": 1162.7, "unit": "pmol/mg protein/min"}, {"measurement": "Uptake transport activity, Repeat 1 / Repeat 2", "setting": "MATE1 [2]; MATE1-293", "result": "942.2 pmol/mg protein/min and 1383.2 pmol/mg protein/min"}, {"measurement": "Ratio of uptake transit activity", "setting": "MATE1 [2]; MATE1-293 vs MOCK293", "result": 6.86}, {"measurement": "Uptake transport activity, Net value", "setting": "MATE1 [2]; MATE1-293 vs MOCK293", "result": 993.3, "unit": "pmol/mg protein/min"}, {"measurement": "Uptake transport activity, Mean", "setting": "MATE1 [2]; MOCK293", "result": 169.4, "unit": "pmol/mg protein/min"}, {"measurement": "Uptake transport activity, Repeat 1 / Repeat 2", "setting": "MATE1 [2]; MOCK293", "result": "163.5 pmol/mg protein/min and 175.3 pmol/mg protein/min"}]}, {"smiles": "CN(C)C(=N)N=C(N)N", "note": "[Metformin]", "values": [{"measurement": "Uptake transport activity, Mean", "setting": "OCT2; MOCK293 (OCT2 set)", "result": 3.503, "unit": "pmol/mg protein/min"}, {"measurement": "Uptake transport activity, Mean", "setting": "OCT2; OCT2-293", "result": 82.72, "unit": "pmol/mg protein/min"}, {"measurement": "Ratio of uptake transit activity", "setting": "OCT2; OCT2-293 vs MOCK293", "result": 23.61}, {"measurement": "Uptake transport activity, Net value", "setting": "OCT2; OCT2-293 vs MOCK293", "result": 79.21, "unit": "pmol/mg protein/min"}]}, {"smiles": "CCc1nc(N)nc(N)c1-c1ccc(Cl)cc1", "note": "[Pyrimethamine]", "values": [{"measurement": "inhibition at 2 μM", "setting": "MATE1 [3]", "result": 123, "unit": "%"}]}]}
